# Laboratory results reported in ChEMBL document CHEMBL1201862, “PubChem BioAssay data set” (2004).
#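 Five concentrations, 48 hours, 96-well plates. The concentration for 50% growth inhibition is given as GI50.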 Active and inactive are the calls of the source. Rule as the data show it: active = GI50 up to about 1.1 µM and inactive = higher.
# Experiments:
# Assay in all cases: growth of human tumour cells (NCI), 48 h
# [1] = system: 786-0
# [2] = system: A498
# [3] = system: CCRF-CEM
# [4] = system: EKVX
# [5] = system: HCT-116
# [6] = system: HCT-15
# [7] = system: Hs-578T
# [8] = system: IGROV-1
# [9] = system: K562
# [10] = system: KM12
# [11] = system: LOX IMVI
# [12] = system: M14
# [13] = system: MDA-MB-435
# [14] = system: NCI-H460
# [15] = system: OVCAR-4
# [16] = system: RPMI-8226
# [17] = system: SK-MEL-5
# [18] = system: SK-OV-3
# [19] = system: UACC-257
# [20] = system: HL-60
Compound,GI50 [1],GI50 [2],GI50 [3],GI50 [4],GI50 [5],GI50 [6],GI50 [7],GI50 [8],GI50 [9],GI50 [10],GI50 [11],GI50 [12],GI50 [13],GI50 [14],GI50 [15],GI50 [16],GI50 [17],GI50 [18],GI50 [19],GI50 [20]
O=C(O)CC1(CC(=O)O)Nc2ccccc2SC1=O,> 100 µM (inactive),> 100 µM (inactive),> 100 µM (inactive),> 100 µM (inactive),> 100 µM (inactive),> 100 µM,> 100 µM (inactive),> 100 µM (inactive),> 100 µM (inactive),> 100 µM (inactive),> 100 µM (inactive),> 100 µM (inactive),> 100 µM (inactive),> 100 µM (inactive),> 100 µM (inactive),> 100 µM (inactive),> 100 µM (inactive),> 100 µM (inactive),> 100 µM (inactive),
Cc1cn(C2OC(CO)C(O)C2F)c(=O)[nH]c1=O (configuration not stated),87.5 µM (inactive),> 100 µM (inactive),12.2 µM (inactive),> 100 µM (inactive),73.3 µM (inactive),> 100 µM,> 100 µM (inactive),> 100 µM (inactive),59.7 µM (inactive),> 100 µM (inactive),24.1 µM (inactive),41.8 µM (inactive),> 100 µM (inactive),21.7 µM (inactive),> 100 µM (inactive),,> 100 µM (inactive),> 100 µM (inactive),> 100 µM (inactive),> 100 µM (inactive)
Cc1cc(N)c2cc(NC(=O)Nc3ccc4nc(C)cc(N)c4c3)ccc2n1,> 100 µM (inactive),> 100 µM (inactive),> 100 µM (inactive),> 100 µM (inactive),> 100 µM (inactive),> 100 µM,> 100 µM (inactive),> 100 µM (inactive),> 100 µM (inactive),> 100 µM (inactive),> 100 µM (inactive),> 100 µM (inactive),> 100 µM (inactive),32.4 µM (inactive),> 100 µM (inactive),> 100 µM (inactive),70.1 µM (inactive),> 100 µM (inactive),> 100 µM (inactive),
COC(=O)C(=O)C(C(=O)C(=O)Nc1ccc(Cl)c(Cl)c1)c1nc2ccc(C(=O)c3ccccc3)cc2nc1O (configuration not stated),> 100 µM (inactive),> 100 µM (inactive),46.6 µM (inactive),44.9 µM (inactive),61.4 µM (inactive),,22.1 µM (inactive),33.5 µM (inactive),< 0.01 µM (active),29 µM (inactive),59.3 µM (inactive),67.3 µM (inactive),35.4 µM (inactive),,,40.2 µM (inactive),> 100 µM (inactive),97.3 µM (inactive),> 100 µM (inactive),45 µM (inactive)
CN1c2ccccc2C2=C(c3ccccc3)CC[C@@H](C(=O)N3C4CC5CC[C@@]4(CS3(=O)=O)C5(C)C)[C@@H]21 (some centres not stated),> 100 µM (inactive),> 100 µM (inactive),> 100 µM (inactive),> 100 µM (inactive),34.2 µM (inactive),> 100 µM,> 100 µM (inactive),> 100 µM (inactive),10.5 µM (inactive),> 100 µM (inactive),> 100 µM (inactive),> 100 µM (inactive),> 100 µM (inactive),> 100 µM (inactive),> 100 µM (inactive),> 100 µM (inactive),> 100 µM (inactive),> 100 µM (inactive),> 100 µM (inactive),
OC1(c2ccccc2)C2CC=CC2C1(c1ccccc1)c1ccccc1 (configuration not stated),61.7 µM (inactive),15.8 µM (inactive),27.8 µM (inactive),20.5 µM (inactive),31.2 µM (inactive),28.6 µM,38.3 µM (inactive),20.1 µM (inactive),35.6 µM (inactive),20.6 µM (inactive),18 µM (inactive),32.7 µM (inactive),20.7 µM (inactive),27 µM (inactive),,25.6 µM (inactive),17.2 µM (inactive),38.9 µM (inactive),27 µM (inactive),27.8 µM (inactive)
CCN(CC)CCN(C)CCc1ccc(Br)cc1,53.7 µM (inactive),13.8 µM (inactive),51.8 µM (inactive),> 100 µM (inactive),59.8 µM (inactive),61.1 µM,21.7 µM (inactive),> 100 µM (inactive),25.7 µM (inactive),51.2 µM (inactive),42.9 µM (inactive),17.2 µM (inactive),53.1 µM (inactive),> 100 µM (inactive),97.3 µM (inactive),> 100 µM (inactive),17.2 µM (inactive),> 100 µM (inactive),37.6 µM (inactive),
CC(=O)Nc1cc(Cl)cc(Cl)c1O,> 100 µM (inactive),> 100 µM (inactive),> 100 µM (inactive),> 100 µM (inactive),> 100 µM (inactive),> 100 µM,> 100 µM (inactive),> 100 µM (inactive),> 100 µM (inactive),> 100 µM (inactive),,> 100 µM (inactive),> 100 µM (inactive),> 100 µM (inactive),> 100 µM (inactive),> 100 µM (inactive),> 100 µM (inactive),> 100 µM (inactive),> 100 µM (inactive),> 100 µM (inactive)
NC1CC(Cl)c2c(Cl)sc(Cl)c21 (configuration not stated),> 100 µM (inactive),> 100 µM (inactive),34 µM (inactive),> 100 µM (inactive),> 100 µM (inactive),> 100 µM,> 100 µM (inactive),> 100 µM (inactive),> 100 µM (inactive),> 100 µM (inactive),> 100 µM (inactive),> 100 µM (inactive),> 100 µM (inactive),> 100 µM (inactive),> 100 µM (inactive),,> 100 µM (inactive),> 100 µM (inactive),> 100 µM (inactive),> 100 µM (inactive)
Cc1nn(C(=O)Cc2ccccc2)c2c1C(c1ccc([N+](=O)[O-])cc1)SC(=N)N2 (configuration not stated),> 100 µM (inactive),> 100 µM (inactive),> 100 µM (inactive),> 100 µM (inactive),> 100 µM (inactive),> 100 µM,> 100 µM (inactive),> 100 µM (inactive),> 100 µM (inactive),> 100 µM (inactive),> 100 µM (inactive),> 100 µM (inactive),> 100 µM (inactive),> 100 µM (inactive),,> 100 µM (inactive),> 100 µM (inactive),> 100 µM (inactive),> 100 µM (inactive),> 100 µM (inactive)
S=c1nc(N2CCCCC2)c2cn[nH]c2[nH]1,88.5 µM (inactive),> 100 µM (inactive),10.4 µM (inactive),> 100 µM (inactive),56.6 µM (inactive),87.9 µM,57.4 µM (inactive),22.1 µM (inactive),29.9 µM (inactive),29.5 µM (inactive),39.4 µM (inactive),74 µM (inactive),46.1 µM (inactive),42.3 µM (inactive),93.5 µM (inactive),12.2 µM (inactive),1.53 µM (inactive),,98.9 µM (inactive),19.6 µM (inactive)
COc1ccc(C2CC(C)(O)Oc3cc4c(cc32)OCO4)cc1 (configuration not stated),37.2 µM (inactive),30.9 µM (inactive),19.3 µM (inactive),40.2 µM (inactive),30.6 µM (inactive),23.8 µM,26.6 µM (inactive),29.5 µM (inactive),15.2 µM (inactive),27.3 µM (inactive),27.2 µM (inactive),36 µM (inactive),7.14 µM (inactive),31.4 µM (inactive),38.6 µM (inactive),27.4 µM (inactive),25.4 µM (inactive),,32.4 µM (inactive),17.6 µM (inactive)
COc1ccc2c(c1)C(=O)OCCC2,> 100 µM (inactive),> 100 µM (inactive),> 100 µM (inactive),> 100 µM (inactive),> 100 µM (inactive),> 100 µM,> 100 µM (inactive),> 100 µM (inactive),> 100 µM (inactive),> 100 µM (inactive),,> 100 µM (inactive),> 100 µM (inactive),> 100 µM (inactive),> 100 µM (inactive),> 100 µM (inactive),> 100 µM (inactive),> 100 µM (inactive),> 100 µM (inactive),> 100 µM (inactive)
N#CC1C(=S)NC(c2ccccc2)=CC12CCCCC2 (configuration not stated),35 µM (inactive),22.8 µM (inactive),25.5 µM (inactive),17.8 µM (inactive),24.5 µM (inactive),19.9 µM,53.7 µM (inactive),23.4 µM (inactive),26.5 µM (inactive),22.9 µM (inactive),18.6 µM (inactive),26.1 µM (inactive),18.2 µM (inactive),94.8 µM (inactive),26.4 µM (inactive),23.3 µM (inactive),25.1 µM (inactive),,64.7 µM (inactive),22.2 µM (inactive)
NS(=O)(=O)c1nnc(NS(=O)(=O)c2cccc3cccnc23)s1,> 100 µM (inactive),> 100 µM (inactive),> 100 µM (inactive),> 100 µM (inactive),> 100 µM (inactive),> 100 µM,> 100 µM (inactive),,> 100 µM (inactive),> 100 µM (inactive),> 100 µM (inactive),> 100 µM (inactive),> 100 µM (inactive),> 100 µM (inactive),> 100 µM (inactive),> 100 µM (inactive),> 100 µM (inactive),> 100 µM (inactive),> 100 µM (inactive),
